From US11485725B2, “Derivatives of piperlongumine and uses thereof” (Auransa Inc., priority 2017, dated 2022)
Read-outs that look alike come from different tables or passages of the source.

Assays:
[1] = test system: MOLP-8; test: In vitro cell viability assay (CellTiter-Glo, ATP levels), multiple myeloma cells; format: cell-based; conditions: 7-day incubation, CellTiter-Glo, average values, read-out: MOLP-8 IC50
Experimental: (§1) In Vitro Cell Viability Assay
(§2) The present disclosure provides a method for inhibiting cell viability, as measured by ATP levels. The method for inhibiting cell viability is drawn to contacting various cancer cells with the compounds described herein at various concentrations. The cancer cell lines were maintained in culture conditions at 37° C. in an atmosphere of 5% CO2 in air. The cells growing in an exponential growth phase were harvested and counted for plating. Compounds were incubated in two cancer cell types representing multiple myeloma (MOLP-8) and triple negative breast cancer (DU4475). Cells were plated at an optimized cell numbers per well in 96-well plates and allowed to attach to the plates overnight at approximately 80% confluency.
(§3) After addition of compounds, plates were incubated for 7-day. At the end of incubation period on day 8, media was removed and replaced with a solution of CellTiter-Glo™ reagent (Promega®) according to protocol. Luminescence was read using an EnVision® multi-label plate reader (Perkin-Elmer®), and signal intensity was calculated relative to positive and negative control wells. Cisplatin was included as the positive control. A dose-response calculation was performed in a non-linear regression fit and by using the Hill equation to calculate a concentration-response curve and 50% inhibitory concentration (IC50) values for each compound.
(§4) The average IC50 values of compounds 1-15 in multiple myeloma (MOLP-8) and triple negative breast cancer (DU4475) cells are shown in Table 1.

[2] = test system: DU4475; test: In vitro cell viability assay (CellTiter-Glo, ATP levels), triple negative breast cancer cells; format: cell-based; conditions: 7-day incubation, CellTiter-Glo, average values, read-out: DU4475 IC50
Experimental: as §1, §2, §3, §4

[3] = test system: HCT116 (colorectal cancer) cells; test: Resazurin-based cell viability assay using colorectal cancer cells
Experimental: Determination of Potency of Compounds in Cell Viability Assay Using Colorectal Cancer Cells
The blue dye resazurin-based assay was performed to determine cell viability and used according to manufacture protocol (Sigma®). HCT116 (colorectal cancer) cells were seeded in the DMEM medium (10% FBS serum). Approximately 1,500 cells were plated per well in 96 well plates. Cells were allowed to grow at 37° C. for 24 hr in 5% CO2 environment in a humidified incubator. Serially diluted compounds (100 μL) were added to the culture plate after 24 hr. After addition of compounds, plates were incubated for 72 hr. Experiment was terminated at the designated incubation time by replacing the medium with 100 μL of 1 mM of resazurin (Sigma®) prepared in culture medium (DMEM) and were further incubated in culture conditions for 4-6 hours. Fluorescence was recorded using a multimodal plate reader (Biotek Synergy Neo®) at an excitation wavelength of 535 nm and emission wavelength of 590 nm to obtain relative fluorescence units. Data analysis was done by subtracting the background fluorescence (medium blank) value from each reading and then normalizing with the vehicle control (DMSO treated cells) to obtain percent survival/proliferation. IC50 was calculated from percent survival values using GraphPad Prism® (see Table 1).

[4] = Homo sapiens, HCT-116, 72 hr incubation

| SMILES | IC50 ([1]; Homo sapiens, MOLP-8, 168 h) | IC50 ([2]; Homo sapiens, DU-4475, 168 h) | IC50 [3, 4] | IC50 [1] | IC50 [2] | IC50 ([3]; 72 hr incubation, read-out: HCT 116 IC50) |
| --- | --- | --- | --- | --- | --- | --- |
| Cc1noc(/C=C/C(=O)N2CCC=CC2=O)n1 [Compound 16, (E)-1-(3-(3-methyl-1,2,4-oxadiazol-5-yl)acryloyl)-5,6-dihydropyridin-2(1H)-one] | 660 nM | 750 nM | 960 nM |  |  |  |
| Cc1noc(/C=C/C(=O)N2CCCC=CC2=O)n1 [Compound 17, (E)-1-(3-(3-methyl-1,2,4-oxadiazol-5-yl)acryloyl)-1,5,6,7-tetrahydro-2H-azepin-2-one] | 330 nM | 1160 nM | 5930 nM |  |  |  |
| O=C1C=CCCN1C(=O)/C=C/C1CC1 [Compound 18, (E)-1-(3-cyclopropylacryloyl)-5,6-dihydropyridin-2(1H)-one] | 680 nM | 2050 nM | 14200 nM |  |  |  |
| CC(C)(C)OC(=O)N1CCC(/C=C/C(=O)N2CCC=CC2=O)CC1 [Compound 19, tert-butyl (E)-4-(3-oxo-3-(6-oxo-3,6-dihydropyridin-1(2H)-yl)prop-1-en-1-yl)piperidine-1-carboxylate] | 410 nM | 820 nM | 1970 nM |  |  |  |
| O=C1C=CCCN1C(=O)/C=C/C1CCNCC1 [Compound 20, (E)-1-(3-(piperidin-4-yl)acryloyl)-5,6-dihydropyridin-2(1H)-one] | 690 nM | 1320 nM | 2130 nM |  |  |  |
| O=C1C=CCCN1C(=O)/C=C/c1ccc2c(n1)OCCO2 [Compound 21, (E)-1-(3-(2,3-dihydro-[1,4]dioxino[2,3-b]pyridin-6-yl)acryloyl)-5,6-dihydropyridin-2(1H)-one] | 680 nM | 530 nM | 3160 nM |  |  |  |
| CC1(/C=C/C(=O)N2CCC=CC2=O)CCCCC1 [Compound 22, (E)-1-(3-(1-methylcyclohexyl)acryloyl)-5,6-dihydropyridin-2(1H)-one] | 2210 nM | 1840 nM | 3850 nM |  |  |  |
| O=C1C=CCCN1C(=O)/C=C/c1ccc2c(n1)OCCO2 [Compound 23, (E)-1-(3-(2,3-dihydro-[1,4]dioxino[2,3-b]pyridin-6-yl)acryloyl)-5,6-dihydropyridin-2(1H)-one] |  |  |  | 700 nM | 500 nM | 3160 nM |
| O=C1C=CCCN1C(=O)/C=C/c1cnc2c(c1)OCCO2 [Compound 24, (E)-1-(3-(2,3-dihydro-[1,4]dioxino[2,3-b]pyridin-7-yl)acryloyl)-5,6-dihydropyridin-2(1H)-one] | 320 nM | 680 nM | 1900 nM |  |  |  |
| COc1cc(/C=C/C(=O)N2CC(O)C=CC2=O)cc2c1OCCO2 (stereo not drawn) [Compound 25, 5-hydroxy-1-[(2E)-3-(8-methoxy-2,3-dihydro-1,4-benzodioxin-6-yl)prop-2-enoyl]-5,6-dihydropyridin-2(1H)-one] | 370 nM | 1770 nM | 4610 nM |  |  |  |
| O=C1C=CCCCN1C(=O)/C=C/c1cnc2c(c1)OCCO2 [Compound 26, (E)-1-(3-(2,3-dihydro-[1,4]dioxino[2,3-b]pyridin-7-yl)acryloyl)-6,7-dihydro-1H-azepin-2(5H)-one] | 170 nM | 630 nM | 3420 nM |  |  |  |
| O=C1C=CCCN1C(=O)/C=C/c1cccnn1 [Compound 27, (E)-1-(3-(pyridazin-3-yl)acryloyl)-5,6-dihydropyridin-2(1H)-one] | 760 nM | 950 nM | 1900 nM |  |  |  |
| CC(C)(C)/C=C/C(=O)N1CCC=CC1=O [Compound 28, (E)-1-(4,4-dimethylpent-2-enoyl)-5,6-dihydropyridin-2(1H)-one] | 490 nM | 1380 nM | 3530 nM |  |  |  |
| O=C1C=CCCN1C(=O)C=C(c1ccccc1)c1ccccc1 [Compound 29, 1-(3,3-diphenylacryloyl)-5,6-dihydropyridin-2(1H)-one] | 2700 nM | 1720 nM | 6400 nM |  |  |  |
| COc1cc(/C=C/C(=O)N2CC(C)(C)C=CC2=O)cc2c1OCCO2 [Compound 30, (E)-1-(3-(8-methoxy-2,3-dihydrobenzo[b][1,4]dioxin-6-yl)acryloyl)-5,5-dimethyl-5,6-dihydropyridin-2(1H)-one] | 2800 nM | 5500 nM | 9900 nM |  |  |  |
| O=C1C=CCCCN1C(=O)/C=C/c1ccc2c(n1)OCCO2 [Compound 31, (E)-1-(3-(2,3-dihydro-[1,4]dioxino[2,3-b]pyridin-6-yl)acryloyl)-1,5,6,7-tetrahydroazepin-2-one] | 270 nM | 560 nM | 1550 nM |  |  |  |
| O=C1C=CC(O)CN1C(=O)/C=C/c1ncccn1 (stereo not drawn) [Compound 32, 5-hydroxy-1-[(2E)-3-(pyrimidin-2-yl)prop-2-enoyl]-5,6-dihydropyridin-2(1H)-one] | 380 nM | 1490 nM | 7200 nM |  |  |  |
| CC1(C)C=CC(=O)N(C(=O)/C=C/c2ncccn2)C1 [Compound 33, (E)-5,5-dimethyl-1-(3-(pyrimidin-2-yl)acryloyl)-5,6-dihydropyridin-2(1H)-one] | 560 nM | 1300 nM | 4070 nM |  |  |  |
| O=C1C=CCCN1C(=O)/C=C/C1CCOCC1 [Compound 34, 1-[(2E)-3-(tetrahydro-2H-pyran-4-yl)prop-2-enoyl]-5,6-dihydropyridin-2(1H)-one] | 510 nM | 1430 nM | 3800 nM |  |  |  |
| O=C(/C=C/c1ncccn1)N1CCC=C(Cl)C1=O [Compound 35, (E)-3-chloro-1-(3-(pyrimidin-2-yl)acryloyl)-5,6-dihydropyridin-2(1H)-one] | 80 nM | 210 nM | 380 nM |  |  |  |
| O=C1C=CC(F)CN1C(=O)/C=C/c1ncccn1 (stereo not drawn) [Compound 37, (E)-5-fluoro-1-(3-(pyrimidin-2-yl)acryloyl)-5,6-dihydropyridin-2(1H)-one] | 110 nM | 420 nM | 870 nM |  |  |  |
| O=C1C=CCCCN1C(=O)/C=C/C1CCNCC1 [Compound 38, (E)-1-(3-(piperidin-4-yl)acryloyl)-6,7-dihydro-1H-azepin-2(5H)-one] | 230 nM | 1030 nM | 920 nM |  |  |  |
| O=C(/C=C/c1ncccn1)N1CCC=C(Br)C1=O [Compound 40, 3-bromo-1-[(2E)-3-(pyrimidin-2-yl)prop-2-enoyl]-5,6-dihydropyridin-2(1H)-one] | 40 nM | 100 nM | 360 nM |  |  |  |
| CC1C=CC(=O)N(C(=O)/C=C/c2ncccn2)C1 (stereo not drawn) [Compound 43, (E)-5-methyl-1-(3-(pyrimidin-2-yl)acryloyl)-5,6-dihydropyridin-2(1H)-one] | 280 nM | 530 nM | 1270 nM |  |  |  |
| O=C1C=CCCN1C(=O)/C=C/C1CCN(CC2CC2)CC1 [Compound 44, (E)-1-(3-(1-(cyclopropylmethyl)piperidin-4-yl)acryloyl)-5,6-dihydropyridin-2(1H)-one] | 490 nM | 1050 nM | 1350 nM |  |  |  |
| O=C1C=CCCN1C(=O)/C=C/C1CCN(C2COC2)CC1 [Compound 45, (E)-1-(3-(1-(oxetan-3-yl)piperidin-4-yl)acryloyl)-5,6-dihydropyridin-2(1H)-one] | 720 nM | 1350 nM | 3240 nM |  |  |  |
| Cn1ccc(/C=C/C(=O)N2CCC=CC2=O)n1 [Compound 53, 1-[(2E)-3-(1-methyl-1H-pyrazol-3-yl)prop-2-enoyl]-5,6-dihydropyridin-2(1H)-one] | 560 nM | 730 nM | 2120 nM |  |  |  |
| COc1cc(/C=C(\C)C(=O)N2CCC=CC2=O)cc2c1OCCO2 [Compound 55, 1-[(2E)-3-(8-methoxy-2,3-dihydro-1,4-benzodioxin-6-yl)-2-methylprop-2-enoyl]-5,6-dihydropyridin-2(1H)-one] | 580 nM | 830 nM | 1960 nM |  |  |  |
| Cn1cc(/C=C/C(=O)N2CCC=CC2=O)cn1 [Compound 56, (E)-1-(3-(1-methyl-1H-pyrazol-4-yl)acryloyl)-5,6-dihydropyridin-2(1H)-one] | 600 nM | 1380 nM | 3600 nM |  |  |  |
| O=C1C=CCCN1C(=O)/C=C/C1CCN(S(=O)(=O)c2ccccc2)CC1 [Compound 57, (E)-1-(3-(1-(phenylsulfonyl)piperidin-4-yl)acryloyl)-5,6-dihydropyridin-2(1H)-one] | 680 nM | 530 nM | 1360 nM |  |  |  |
